From publication PMC9516332 (Frontiers in Oncology, 2022) come the findings set out here.

Test in all cases: Kinase panel profiling at 1 µmol/L (MSA or IMAP), percentage inhibition
Format in all cases: biochemical

Assay [1] deals with panel of 255 wild-type kinases (Homo sapiens, UniProt P31751). Particulars: AKT2 kinase assay; 1 µmol/L single concentration; read-out: %-inhibition AKT2.
The target of assay [2] is panel of 255 wild-type kinases (Homo sapiens, UniProt Q14680). Particulars: MELK; 1 µmol/L single concentration; read-out: %-inhibition, MELK.
In assay [3] the target is panel of 255 wild-type kinases (Homo sapiens, UniProt Q16512). The conditions noted are these: kinase PKN1; 1 µmol/L single concentration; read-out: %-inhibition at 1 µmol/L, PKN1.
Assay [4] has as its target T1, panel of 255 wild-type kinases (Homo sapiens, UniProt Q96L34).
T1 sequence (Q96L34 1-752): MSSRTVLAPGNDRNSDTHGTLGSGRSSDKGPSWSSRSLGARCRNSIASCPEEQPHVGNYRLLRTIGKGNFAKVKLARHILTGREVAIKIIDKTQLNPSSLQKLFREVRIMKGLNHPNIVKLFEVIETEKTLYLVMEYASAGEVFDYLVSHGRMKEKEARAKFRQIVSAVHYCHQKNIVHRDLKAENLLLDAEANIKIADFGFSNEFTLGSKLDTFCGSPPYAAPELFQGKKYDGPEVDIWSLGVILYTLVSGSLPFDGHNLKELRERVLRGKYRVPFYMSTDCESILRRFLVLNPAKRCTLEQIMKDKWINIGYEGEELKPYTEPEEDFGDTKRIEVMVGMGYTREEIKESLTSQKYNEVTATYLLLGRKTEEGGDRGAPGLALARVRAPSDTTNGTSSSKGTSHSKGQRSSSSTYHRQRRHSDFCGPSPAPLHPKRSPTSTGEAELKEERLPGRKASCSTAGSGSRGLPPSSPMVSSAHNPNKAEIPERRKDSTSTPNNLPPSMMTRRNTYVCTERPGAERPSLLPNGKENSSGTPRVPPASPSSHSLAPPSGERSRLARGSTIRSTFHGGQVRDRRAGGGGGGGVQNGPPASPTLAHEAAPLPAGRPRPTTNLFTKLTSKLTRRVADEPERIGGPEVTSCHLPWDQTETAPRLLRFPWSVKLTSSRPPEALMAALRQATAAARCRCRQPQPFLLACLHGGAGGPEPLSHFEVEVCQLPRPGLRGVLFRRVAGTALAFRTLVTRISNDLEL
Particulars: MARK4; 1 µmol/L single concentration; read-out: %-inhibition, MARK4.

For assay [5], the target named is T2, panel of 255 wild-type kinases (Homo sapiens, UniProt P51955).
T2 sequence (P51955 1-445): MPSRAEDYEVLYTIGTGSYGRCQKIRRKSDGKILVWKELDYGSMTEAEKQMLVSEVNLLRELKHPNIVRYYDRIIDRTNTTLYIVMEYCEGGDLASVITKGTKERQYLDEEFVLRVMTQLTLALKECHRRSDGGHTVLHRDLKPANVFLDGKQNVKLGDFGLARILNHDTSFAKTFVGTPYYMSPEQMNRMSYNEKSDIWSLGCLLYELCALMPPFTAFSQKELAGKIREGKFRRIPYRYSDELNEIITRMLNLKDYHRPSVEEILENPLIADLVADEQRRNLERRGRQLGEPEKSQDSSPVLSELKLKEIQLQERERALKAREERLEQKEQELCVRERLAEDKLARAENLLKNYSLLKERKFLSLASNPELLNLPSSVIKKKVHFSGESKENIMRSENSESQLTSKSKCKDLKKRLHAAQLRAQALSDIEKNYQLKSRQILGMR
The conditions noted are these: NEK2; 1 µmol/L single concentration; read-out: %-inhibition, NEK2.

The target of assay [6] is T3, panel of 255 wild-type kinases (Homo sapiens, UniProt P29320).
T3 sequence (P29320 21-983): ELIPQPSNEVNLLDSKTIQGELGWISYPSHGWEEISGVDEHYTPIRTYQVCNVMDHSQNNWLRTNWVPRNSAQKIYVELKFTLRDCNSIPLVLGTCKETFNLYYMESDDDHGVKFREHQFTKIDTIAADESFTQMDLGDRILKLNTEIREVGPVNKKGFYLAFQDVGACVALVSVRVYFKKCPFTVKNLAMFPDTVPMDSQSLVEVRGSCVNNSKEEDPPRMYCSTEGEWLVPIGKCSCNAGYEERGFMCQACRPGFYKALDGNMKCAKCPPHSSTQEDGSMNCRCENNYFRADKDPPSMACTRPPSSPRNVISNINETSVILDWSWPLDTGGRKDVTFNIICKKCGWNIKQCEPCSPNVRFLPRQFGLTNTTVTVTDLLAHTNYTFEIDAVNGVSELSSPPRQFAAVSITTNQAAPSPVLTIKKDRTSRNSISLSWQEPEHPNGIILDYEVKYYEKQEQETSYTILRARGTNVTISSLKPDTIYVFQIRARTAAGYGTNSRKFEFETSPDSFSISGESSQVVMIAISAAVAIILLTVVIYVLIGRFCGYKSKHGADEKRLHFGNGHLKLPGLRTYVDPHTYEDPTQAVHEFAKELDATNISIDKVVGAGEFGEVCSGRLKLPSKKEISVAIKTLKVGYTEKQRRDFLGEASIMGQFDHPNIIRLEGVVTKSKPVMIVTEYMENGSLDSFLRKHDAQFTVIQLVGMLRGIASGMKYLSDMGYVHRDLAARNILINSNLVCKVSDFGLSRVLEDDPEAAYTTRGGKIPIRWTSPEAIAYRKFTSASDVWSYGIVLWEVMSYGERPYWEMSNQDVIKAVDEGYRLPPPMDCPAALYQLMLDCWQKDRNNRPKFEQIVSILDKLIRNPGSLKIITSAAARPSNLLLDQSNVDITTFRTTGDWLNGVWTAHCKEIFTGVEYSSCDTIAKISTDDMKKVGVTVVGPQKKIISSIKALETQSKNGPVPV
Particulars: kinase EPHA3; 1 µmol/L single concentration; read-out: %-inhibition at 1 µmol/L, EPHA3.

Assay [7] has as its target panel of 255 wild-type kinases (Homo sapiens, UniProt Q00526). The conditions noted are these: CDK3/CycE1 kinase assay; 1 µmol/L single concentration; read-out: %-inhibition CDK3/CycE1.

In the case of `CO[C@]1(C(=O)N[C@@H](C)c2ccc(-n3cc(F)cn3)nc2)CC[C@H](c2nc(C)cc(Nc3cc(C)[nH]n3)n2)CC1` [pralsetinib], the inhibition at 1 µM was 0.305% in assay [1]; 3.6% in assay [2]; 27% in assay [3]; -9% in assay [4]; 7.4% in assay [5]; 32% in assay [6]. In addition, the inhibition at 1 µM in assay [7] stood at 42%.

`CCn1c(=O)c(-c2cc(NC(=O)Nc3ccccc3)c(F)cc2Br)cc2cnc(NC)cc21` [ripretinib]: the inhibition at 1 µM was -5% in assay [1]; 30% in assay [2]; 10% in assay [3]; -2.13% in assay [4]; -0.18% in assay [5]; 88% in assay [6]. In addition, the inhibition at 1 µM in assay [7] is -4.34%.

Take `COc1ccc(CN2C3CC2CN(c2ccc(-c4cc(OCC(C)(C)O)cn5ncc(C#N)c45)cn2)C3)cn1` [selpercatinib]: the inhibition at 1 µM is -1.76% in assay [1]; 62% in assay [2]; 9% in assay [3]; 25% in assay [4]; 2% in assay [5]; 49% in assay [6]. The inhibition at 1 µM in assay [7] is 3.49%.

As for `Cn1cnc2c(F)c(Nc3ccc(Br)cc3Cl)c(C(=O)NOCCO)cc21` [selumetinib], the inhibition at 1 µM is 0.316% in assay [1]; -2.6% in assay [2]; 10% in assay [3]; -11% in assay [4]; 9% in assay [5]; -8% in assay [6]. Further, the inhibition at 1 µM in assay [7] is -9%.

Take `Cc1cc(Nc2ncnc3ccc(NC4=NC(C)(C)CO4)cc23)ccc1Oc1ccn2ncnc2c1` [tucatinib]: the inhibition at 1 µM is -1.46% in assay [1]; 0.809% in assay [2]; 18% in assay [3]; -0.473% in assay [4]; 2.8% in assay [5]; -10% in assay [6]. Further, in assay [7], the inhibition at 1 µM is -3.48%.

Consider `C=CC(=O)N1CCC([C@@H]2CCNc3c(C(N)=O)c(-c4ccc(Oc5ccccc5)cc4)nn32)CC1` [zanubrutinib], for which the inhibition at 1 µM in assay [1] was -4%; in assay [2], -0.631%; in assay [3] it was -11%; in assay [4], -7.42%; in assay [5], -0.59%; in assay [6], -0.0989%. Also, the inhibition at 1 µM in assay [7] worked out at 2.65%.
